Settings: Liquid; for viscosity: Vibrating wire viscometry; for mass density: vibrating wire

COCCOC [1,2-dimethoxyethane]
Settings	mass density [kg/m3]	viscosity [mPa·s]
243.15 K, 100 kPa	919.667	0.8856
243.15 K, 4540 kPa	923.045	0.9166
243.15 K, 9560 kPa	926.586	0.9502
243.15 K, 14590 kPa	928.901	0.9855
243.15 K, 19470 kPa	931.879	1.017
253.15 K, 100 kPa	909.614	0.7464
253.15 K, 4550 kPa	912.595	0.7729
253.15 K, 9550 kPa	915.73	0.7995
253.15 K, 14450 kPa	917.844	0.8296
253.15 K, 19430 kPa	921.699	0.858
263.15 K, 100 kPa	899.206	0.642
263.15 K, 4560 kPa	901.757	0.6618
263.15 K, 9590 kPa	904.482	0.6849
263.15 K, 14590 kPa	908.179	0.7095
263.15 K, 19460 kPa	911.986	0.7337
273.15 K, 100 kPa	887.607	0.5585
273.15 K, 4560 kPa	890.738	0.5759
273.15 K, 9590 kPa	894.412	0.5961
273.15 K, 14550 kPa	898.792	0.6173
273.15 K, 19480 kPa	903.248	0.6392
283.15 K, 100 kPa	876.889	0.4904
283.15 K, 4550 kPa	880.455	0.5056
283.15 K, 9570 kPa	884.621	0.525
283.15 K, 14460 kPa	889.18	0.5458
283.15 K, 19450 kPa	892.89	0.5619
293.15 K, 100 kPa	866.528	0.4341
293.15 K, 4530 kPa	869.991	0.4492
293.15 K, 9560 kPa	875.037	0.4673
293.15 K, 14460 kPa	879.707	0.485
293.15 K, 19450 kPa	883.646	0.5011
303.15 K, 100 kPa	855.111	0.3896
303.15 K, 4540 kPa	859.667	0.4031
303.15 K, 9500 kPa	865.15	0.4197
303.15 K, 14440 kPa	869.454	0.4334
303.15 K, 19440 kPa	873.398	0.4494
313.15 K, 100 kPa	843.765	0.3512
313.15 K, 4540 kPa	848.633	0.3641
313.15 K, 9500 kPa	854.082	0.3784
313.15 K, 14440 kPa	858.578	0.3922
313.15 K, 19420 kPa	863.033	0.4055
323.15 K, 100 kPa	832.929	0.3189
323.15 K, 4560 kPa	838.334	0.3303
323.15 K, 9530 kPa	843.798	0.3433
323.15 K, 14450 kPa	848.464	0.3562
323.15 K, 19460 kPa	852.959	0.3693
333.15 K, 100 kPa	822.133	0.2903
333.15 K, 4550 kPa	827.195	0.3018
333.15 K, 9570 kPa	833.307	0.3129
333.15 K, 14460 kPa	837.525	0.3256
333.15 K, 19430 kPa	842.805	0.3372
343.15 K, 100 kPa	809.48	0.2653
343.15 K, 4540 kPa	815.487	0.2754
343.15 K, 9560 kPa	821.858	0.2868
343.15 K, 14440 kPa	827.359	0.2985
343.15 K, 19420 kPa	832.794	0.3093
353.15 K, 360 kPa	798.071	0.2437
353.15 K, 4560 kPa	803.982	0.2539
353.15 K, 9570 kPa	810.723	0.2642
353.15 K, 14440 kPa	817.205	0.2754
353.15 K, 19420 kPa	822.843	0.2858
363.15 K, 160 kPa	785.42	0.2233
363.15 K, 4560 kPa	792.463	0.233
363.15 K, 9570 kPa	799.914	0.2438
363.15 K, 14440 kPa	806.21	0.2557
363.15 K, 19420 kPa	812.462	0.2641
373.15 K, 200 kPa	772.627	0.2059
373.15 K, 4560 kPa	780.565	0.2157
373.15 K, 9580 kPa	788.637	0.2263
373.15 K, 14440 kPa	795.752	0.2355
373.15 K, 19420 kPa	802.7	0.2457

COCOC [dimethoxymethane]
Settings	mass density [kg/m3]	viscosity [mPa·s]
243.15 K, 100 kPa	917.773	0.6298
243.15 K, 4400 kPa	921.19	0.651
243.15 K, 9420 kPa	924.889	0.6752
243.15 K, 14450 kPa	928.455	0.7003
243.15 K, 19440 kPa	931.885	0.7258
253.15 K, 100 kPa	905.693	0.5389
253.15 K, 4420 kPa	909.439	0.556
253.15 K, 9410 kPa	913.399	0.5769
253.15 K, 14450 kPa	917.473	0.5975
253.15 K, 19440 kPa	921.171	0.6191
263.15 K, 100 kPa	893.705	0.4697
263.15 K, 4440 kPa	897.611	0.4857
263.15 K, 9440 kPa	901.958	0.5039
263.15 K, 14470 kPa	906.179	0.5215
263.15 K, 19470 kPa	910.144	0.5406
273.15 K, 100 kPa	881.433	0.4145
273.15 K, 4440 kPa	885.755	0.4285
273.15 K, 9440 kPa	890.38	0.4446
273.15 K, 14480 kPa	894.826	0.4615
273.15 K, 19540 kPa	899.081	0.4783
283.15 K, 100 kPa	869.282	0.3685
283.15 K, 4450 kPa	873.902	0.3818
283.15 K, 9430 kPa	878.977	0.3964
283.15 K, 14490 kPa	883.736	0.4114
283.15 K, 19550 kPa	888.33	0.4265
293.15 K, 100 kPa	857.043	0.3303
293.15 K, 4410 kPa	862.006	0.342
293.15 K, 9460 kPa	867.484	0.3559
293.15 K, 14490 kPa	872.625	0.3692
293.15 K, 19550 kPa	877.53	0.3832
303.15 K, 100 kPa	844.252	0.2963
303.15 K, 4450 kPa	849.702	0.3076
303.15 K, 9450 kPa	855.591	0.3199
303.15 K, 14490 kPa	861.24	0.3323
303.15 K, 19550 kPa	866.565	0.345
313.15 K, 160 kPa	831.685	0.2682
313.15 K, 4440 kPa	837.579	0.2785
313.15 K, 9420 kPa	843.933	0.2905
313.15 K, 14450 kPa	849.923	0.3022
313.15 K, 19440 kPa	855.5	0.3137
323.15 K, 190 kPa	818.682	0.2436
323.15 K, 4390 kPa	824.99	0.2532
323.15 K, 9420 kPa	832.095	0.2644
323.15 K, 14460 kPa	838.549	0.2758
323.15 K, 19490 kPa	844.585	0.2866
333.15 K, 210 kPa	805.334	0.2202
333.15 K, 4390 kPa	812.279	0.229
333.15 K, 9410 kPa	819.852	0.2401
333.15 K, 14450 kPa	826.872	0.2504
333.15 K, 19450 kPa	833.322	0.261
343.15 K, 280 kPa	791.705	0.2009
343.15 K, 4430 kPa	799.263	0.2096
343.15 K, 9430 kPa	807.432	0.2203
343.15 K, 14460 kPa	815.084	0.2301
343.15 K, 19460 kPa	822.037	0.24
353.15 K, 360 kPa	777.688	0.1837
353.15 K, 4370 kPa	785.794	0.1922
353.15 K, 9400 kPa	794.895	0.2024
353.15 K, 14450 kPa	803.147	0.2123
353.15 K, 19430 kPa	810.634	0.2217
363.15 K, 430 kPa	763.12	0.1688
363.15 K, 4400 kPa	772.066	0.1767
363.15 K, 9410 kPa	782.127	0.1868
363.15 K, 14450 kPa	791.118	0.1963
363.15 K, 19460 kPa	799.153	0.2059
373.15 K, 550 kPa	748.032	0.1551
373.15 K, 4370 kPa	757.736	0.1628
373.15 K, 9400 kPa	768.901	0.1728
373.15 K, 14450 kPa	778.77	0.1822
373.15 K, 19480 kPa	787.494	0.1914

Source: the NIST ThermoML archive (doi:10.1007/s10765-008-0503-0)
